Measured values from ChEMBL document CHEMBL5291721, “A preclinical secondary pharmacology resource illuminates target-adverse drug reaction associations of marketed drugs” (Nat Commun, 2023).

How the values were obtained:
Mu-type opioid receptor = Mu-type opioid receptor (Homo sapiens, UniProt P35372)
[1] = molecular target: T1, Muscarinic acetylcholine receptor M1 (Homo sapiens, UniProt P11229); type: functional, cell-based
T1 sequence (P11229 whole entry): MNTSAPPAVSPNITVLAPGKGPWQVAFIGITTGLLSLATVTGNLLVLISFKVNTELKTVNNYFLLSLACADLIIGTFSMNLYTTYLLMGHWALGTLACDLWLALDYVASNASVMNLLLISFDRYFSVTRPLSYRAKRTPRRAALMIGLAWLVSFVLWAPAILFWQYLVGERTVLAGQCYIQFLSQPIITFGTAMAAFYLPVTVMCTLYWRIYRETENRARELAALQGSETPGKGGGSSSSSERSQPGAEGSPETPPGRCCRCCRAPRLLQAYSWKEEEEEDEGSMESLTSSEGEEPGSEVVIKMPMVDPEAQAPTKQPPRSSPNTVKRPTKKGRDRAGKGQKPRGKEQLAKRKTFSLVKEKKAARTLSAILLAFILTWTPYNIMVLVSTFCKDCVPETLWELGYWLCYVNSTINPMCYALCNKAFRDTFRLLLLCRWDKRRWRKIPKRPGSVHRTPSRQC

[2] = molecular target: T2, Prostaglandin G/H synthase 1 (Homo sapiens, UniProt P23219); type: functional
Histamine H3 receptor = Histamine H3 receptor (Homo sapiens, UniProt Q9Y5N1)
[3] = molecular target: T2, Prostaglandin G/H synthase 1; type: functional; remark: listed apart in the source
Prothrombin = Prothrombin (Homo sapiens, UniProt P00734); type: functional
[4] = molecular target: T3, Alpha-1A adrenergic receptor (Homo sapiens, UniProt P35348); type: functional, cell-based
T3 sequence (P35348 whole entry): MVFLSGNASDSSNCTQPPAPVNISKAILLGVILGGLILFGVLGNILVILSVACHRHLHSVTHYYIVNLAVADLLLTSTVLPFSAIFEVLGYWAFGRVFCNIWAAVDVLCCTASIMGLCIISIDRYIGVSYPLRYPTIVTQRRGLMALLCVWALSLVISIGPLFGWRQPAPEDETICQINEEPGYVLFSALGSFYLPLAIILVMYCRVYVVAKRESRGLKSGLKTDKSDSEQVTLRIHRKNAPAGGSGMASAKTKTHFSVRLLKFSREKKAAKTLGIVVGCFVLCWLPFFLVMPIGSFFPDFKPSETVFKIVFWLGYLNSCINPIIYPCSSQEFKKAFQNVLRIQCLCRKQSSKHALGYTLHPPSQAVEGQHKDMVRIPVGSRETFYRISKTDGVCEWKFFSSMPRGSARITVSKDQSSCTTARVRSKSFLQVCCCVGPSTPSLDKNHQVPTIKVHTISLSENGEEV

[5] = molecular target: 5-hydroxytryptamine receptor 2B (Homo sapiens, UniProt P41595); type: functional, cell-based
[6] = molecular target: T4, Alpha-2A adrenergic receptor (Homo sapiens, UniProt P08913)
T4 sequence (P08913 whole entry): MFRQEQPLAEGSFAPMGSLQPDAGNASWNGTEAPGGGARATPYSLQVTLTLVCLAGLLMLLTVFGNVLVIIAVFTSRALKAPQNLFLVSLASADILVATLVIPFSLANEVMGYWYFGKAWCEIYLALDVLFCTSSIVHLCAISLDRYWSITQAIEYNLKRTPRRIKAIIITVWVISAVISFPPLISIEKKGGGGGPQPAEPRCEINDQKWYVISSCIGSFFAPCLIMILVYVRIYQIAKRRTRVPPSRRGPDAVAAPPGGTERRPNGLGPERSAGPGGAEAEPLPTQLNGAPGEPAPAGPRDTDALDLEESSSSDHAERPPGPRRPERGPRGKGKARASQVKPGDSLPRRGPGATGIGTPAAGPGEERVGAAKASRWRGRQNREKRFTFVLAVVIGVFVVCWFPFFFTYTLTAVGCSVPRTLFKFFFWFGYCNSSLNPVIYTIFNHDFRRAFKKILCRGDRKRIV

[7] = molecular target: 3',5'-cyclic-AMP phosphodiesterase 4A (Homo sapiens, UniProt P27815); type: functional
Progesterone receptor = molecular target: T5, Progesterone receptor (Homo sapiens, UniProt P06401)
T5 sequence (P06401 whole entry): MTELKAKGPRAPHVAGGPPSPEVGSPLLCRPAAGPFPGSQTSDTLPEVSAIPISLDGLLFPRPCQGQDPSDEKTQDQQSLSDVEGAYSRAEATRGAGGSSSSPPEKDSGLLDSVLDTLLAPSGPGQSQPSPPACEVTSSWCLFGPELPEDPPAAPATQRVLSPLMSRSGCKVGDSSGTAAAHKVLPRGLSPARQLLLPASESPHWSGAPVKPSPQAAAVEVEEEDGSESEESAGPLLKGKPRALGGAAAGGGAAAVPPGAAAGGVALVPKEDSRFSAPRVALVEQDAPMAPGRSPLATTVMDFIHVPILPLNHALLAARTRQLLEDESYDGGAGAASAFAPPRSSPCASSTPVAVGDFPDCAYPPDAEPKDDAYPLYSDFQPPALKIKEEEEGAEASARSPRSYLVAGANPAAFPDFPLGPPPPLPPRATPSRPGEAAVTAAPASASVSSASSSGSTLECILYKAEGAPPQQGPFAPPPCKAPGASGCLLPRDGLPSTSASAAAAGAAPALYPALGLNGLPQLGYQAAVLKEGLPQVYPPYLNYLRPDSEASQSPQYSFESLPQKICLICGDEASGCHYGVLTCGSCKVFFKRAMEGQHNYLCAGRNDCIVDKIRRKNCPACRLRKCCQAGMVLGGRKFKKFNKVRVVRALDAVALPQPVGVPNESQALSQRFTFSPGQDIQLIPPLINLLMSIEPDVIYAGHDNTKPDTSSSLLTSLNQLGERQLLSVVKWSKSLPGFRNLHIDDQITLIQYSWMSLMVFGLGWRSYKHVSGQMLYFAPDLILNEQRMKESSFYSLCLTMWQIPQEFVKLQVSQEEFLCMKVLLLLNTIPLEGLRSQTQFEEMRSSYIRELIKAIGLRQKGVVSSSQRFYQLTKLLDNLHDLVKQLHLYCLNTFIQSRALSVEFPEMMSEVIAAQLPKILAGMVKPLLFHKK
Note: assay procedure not described here.

Chain of Mu-type opioid receptor (P35372 whole entry): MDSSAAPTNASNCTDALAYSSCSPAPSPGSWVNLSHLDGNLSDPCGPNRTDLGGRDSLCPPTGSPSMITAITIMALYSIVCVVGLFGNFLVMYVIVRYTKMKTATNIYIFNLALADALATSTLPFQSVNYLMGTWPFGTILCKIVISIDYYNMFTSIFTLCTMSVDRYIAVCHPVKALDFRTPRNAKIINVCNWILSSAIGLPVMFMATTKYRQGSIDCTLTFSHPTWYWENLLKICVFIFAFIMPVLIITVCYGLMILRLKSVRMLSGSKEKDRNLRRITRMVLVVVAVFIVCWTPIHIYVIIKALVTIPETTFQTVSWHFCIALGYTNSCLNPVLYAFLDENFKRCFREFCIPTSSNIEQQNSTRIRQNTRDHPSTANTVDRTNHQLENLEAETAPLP
Chain of 5-hydroxytryptamine receptor 2B (P41595 whole entry): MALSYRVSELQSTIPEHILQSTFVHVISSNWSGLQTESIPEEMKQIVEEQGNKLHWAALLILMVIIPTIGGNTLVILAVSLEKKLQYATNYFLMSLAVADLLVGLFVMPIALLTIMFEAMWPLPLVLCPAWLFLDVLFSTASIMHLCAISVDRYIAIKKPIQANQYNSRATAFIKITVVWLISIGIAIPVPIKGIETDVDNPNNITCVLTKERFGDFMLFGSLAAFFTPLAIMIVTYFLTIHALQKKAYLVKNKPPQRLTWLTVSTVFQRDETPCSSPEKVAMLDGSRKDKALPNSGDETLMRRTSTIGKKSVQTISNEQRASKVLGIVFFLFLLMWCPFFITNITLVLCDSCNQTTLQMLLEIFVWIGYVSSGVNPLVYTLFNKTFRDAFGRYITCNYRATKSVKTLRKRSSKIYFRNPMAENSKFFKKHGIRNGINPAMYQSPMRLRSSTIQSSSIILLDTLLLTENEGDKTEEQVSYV
T2 sequence (P23219 whole entry): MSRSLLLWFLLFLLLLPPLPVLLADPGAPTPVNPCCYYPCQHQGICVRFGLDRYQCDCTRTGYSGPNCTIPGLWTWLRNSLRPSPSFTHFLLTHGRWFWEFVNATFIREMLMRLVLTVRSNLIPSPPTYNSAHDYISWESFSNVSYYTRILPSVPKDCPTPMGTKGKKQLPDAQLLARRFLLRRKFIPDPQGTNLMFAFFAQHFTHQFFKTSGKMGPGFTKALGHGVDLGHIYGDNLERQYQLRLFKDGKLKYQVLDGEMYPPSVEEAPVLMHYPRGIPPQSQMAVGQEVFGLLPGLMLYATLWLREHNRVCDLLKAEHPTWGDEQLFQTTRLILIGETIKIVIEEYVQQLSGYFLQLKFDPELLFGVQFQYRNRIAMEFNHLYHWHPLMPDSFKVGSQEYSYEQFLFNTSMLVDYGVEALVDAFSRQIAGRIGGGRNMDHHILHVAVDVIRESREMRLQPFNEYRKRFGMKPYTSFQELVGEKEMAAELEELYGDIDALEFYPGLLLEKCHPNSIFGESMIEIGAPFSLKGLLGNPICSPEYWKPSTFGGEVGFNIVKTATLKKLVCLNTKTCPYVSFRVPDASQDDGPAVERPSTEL
Chain of 3',5'-cyclic-AMP phosphodiesterase 4A (P27815 whole entry): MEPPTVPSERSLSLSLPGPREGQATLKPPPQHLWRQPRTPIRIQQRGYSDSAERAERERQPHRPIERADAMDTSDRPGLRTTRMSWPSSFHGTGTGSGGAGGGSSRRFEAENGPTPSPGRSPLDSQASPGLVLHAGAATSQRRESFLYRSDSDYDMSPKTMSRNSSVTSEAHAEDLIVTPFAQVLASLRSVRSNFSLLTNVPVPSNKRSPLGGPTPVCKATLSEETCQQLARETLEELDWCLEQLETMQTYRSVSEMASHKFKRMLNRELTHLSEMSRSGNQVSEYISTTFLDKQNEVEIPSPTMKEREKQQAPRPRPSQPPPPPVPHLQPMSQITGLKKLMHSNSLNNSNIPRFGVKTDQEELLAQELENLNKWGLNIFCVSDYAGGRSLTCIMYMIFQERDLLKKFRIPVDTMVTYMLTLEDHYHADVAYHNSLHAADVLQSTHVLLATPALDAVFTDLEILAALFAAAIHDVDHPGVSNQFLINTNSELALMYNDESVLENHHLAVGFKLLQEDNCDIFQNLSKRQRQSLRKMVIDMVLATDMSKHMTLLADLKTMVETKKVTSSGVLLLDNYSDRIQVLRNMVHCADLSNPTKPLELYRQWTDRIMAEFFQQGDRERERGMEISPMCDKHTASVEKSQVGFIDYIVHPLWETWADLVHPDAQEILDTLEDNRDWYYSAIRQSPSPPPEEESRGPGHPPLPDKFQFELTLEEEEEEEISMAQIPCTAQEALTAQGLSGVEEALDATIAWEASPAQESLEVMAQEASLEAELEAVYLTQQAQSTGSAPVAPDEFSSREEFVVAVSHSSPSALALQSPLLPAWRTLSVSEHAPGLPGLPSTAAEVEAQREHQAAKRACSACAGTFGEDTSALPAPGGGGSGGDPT
Chain of Histamine H3 receptor (Q9Y5N1 whole entry): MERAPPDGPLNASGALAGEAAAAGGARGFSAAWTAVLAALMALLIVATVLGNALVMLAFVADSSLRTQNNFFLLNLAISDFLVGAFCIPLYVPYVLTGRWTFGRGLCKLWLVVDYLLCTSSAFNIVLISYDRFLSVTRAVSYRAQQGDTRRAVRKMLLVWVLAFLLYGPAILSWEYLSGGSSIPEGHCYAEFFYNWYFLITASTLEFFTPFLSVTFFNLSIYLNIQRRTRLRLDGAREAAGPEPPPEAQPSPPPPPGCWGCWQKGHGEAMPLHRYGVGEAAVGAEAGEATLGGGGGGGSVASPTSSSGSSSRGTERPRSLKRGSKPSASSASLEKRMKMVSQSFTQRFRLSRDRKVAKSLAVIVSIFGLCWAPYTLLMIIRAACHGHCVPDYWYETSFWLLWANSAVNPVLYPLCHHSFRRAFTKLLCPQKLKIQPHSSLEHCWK

Row | Structure (SMILES) | AC50 (Mu-type opioid receptor) [µM] | AC50 [1] [µM] | AC50 [2] [µM] | AC50 (Histamine H3 receptor) [µM] | AC50 [3] [µM] | AC50 (Prothrombin) [µM] | AC50 [4] [µM] | AC50 [5] [µM] | AC50 [6] [µM] | AC50 [7] [µM] | AC50 (Progesterone receptor) [µM]
1 | CCCCCNC(=N)N/N=C/c1c[nH]c2ccc(OC)cc12 [TEGASEROD] | 2.32 | > 3 | 2.65 | > 30 | 20.4 | > 30 | 1.16 | > 30 | 0.92 | > 30 | > 30
2 | OC(c1ccccc1)(c1ccccc1)C12CC[N+](CCOCc3ccccc3)(CC1)CC2 | 1.07 | > 30 | > 30 | > 30 | > 30 | > 30 | > 30 | > 30 | > 30 | 15.6 | > 30
3 | CCN(CC)CCOC(=O)C(c1ccccc1)C1CCCCC1 (configuration not stated) [DROFENINE] | 25.3 | > 30 | > 30 | > 30 | > 30 | > 30 | 9.55 | > 30 | 24.1 | > 30 | > 30
4 | C[S+](CC[C@H](N)C(=O)[O-])C[C@H]1O[C@@H](n2cnc3c(N)ncnc32)[C@H](O)[C@@H]1O (some centres not stated) [ADEMETIONINE] | > 30 | > 30 | > 30 | > 30 | > 30 | > 30 | > 30 | > 30 | > 30 | > 30 | > 30
5 | C[N+]1(CCCCC[N+]2(C)CCCC2)CCCC1 [PENTOLINIUM] | > 30 | > 30 | > 30 | > 30 | > 30 | > 30 | > 30 | > 30 | > 30 | > 30 | > 30
6 | CC[C@@H](C(N)=O)N1CCCC1=O | > 30 | > 30 | > 30 | > 30 | > 30 | > 30 | > 30 | > 30 | > 30 | > 30 | > 30
7 | CC(=O)Oc1c(C)c(C)c2c(c1C)CC[C@@](C)(CCC[C@H](C)CCC[C@H](C)CCCC(C)C)O2 | > 30 | > 30 | > 30 | > 30 | > 30 | > 30 | > 30 | > 30 | > 30 | 9.38 | > 30
8 | O=[N+]([O-])c1cn2c(n1)OC[C@@H](OCc1ccc(OC(F)(F)F)cc1)C2 [PRETOMANID] | > 30 | > 30 | > 30 | > 30 | > 30 | > 30 | > 10 | > 30 | > 30 | > 30 | > 30
9 | CCOc1ccccc1C(N)=O [ETHENZAMIDE] | > 30 | > 30 | > 30 | > 30 | > 30 | > 30 | > 30 | > 30 | > 30 | > 30 | > 30
10 | CCOc1ccc(Cc2cc([C@@H]3O[C@H](CO)[C@@H](O)[C@H](O)[C@H]3O)ccc2Cl)cc1 [DAPAGLIFLOZIN] | > 30 | > 30 | > 30 | > 30 | > 30 | > 30 | > 30 | > 30 | > 30 | > 30 | > 30
11 | N=c1ccn2c(n1)O[C@H]1[C@H](O)[C@@H](CO)O[C@H]12 [ANCITABINE] | > 30 | > 30 | > 30 | > 30 | > 30 | > 30 | > 30 | > 30 | > 30 | > 30 | > 30
12 | O=C(Oc1ccc2c(c1)CCCN2C(=O)C(Cl)Cl)c1ccco1 [QUINFAMIDE] | > 30 | > 30 | > 30 | > 30 | > 30 | > 30 | 24.6 | > 30 | > 30 | > 30 | > 30
13 | N=C1CCCN1Cc1[nH]c(=O)[nH]c(=O)c1Cl | > 30 | > 30 | > 30 | > 30 | > 30 | > 30 | > 30 | > 30 | > 30 | > 30 | > 30
14 | O=C(O)c1ccccc1C(=O)Nc1ccc(S(=O)(=O)Nc2nccs2)cc1 [PHTHALYLSULFATHIAZOLE] | > 30 | > 30 | 20 | > 30 | 8.95 | > 30 | > 30 | > 30 | > 30 | > 30 | > 30
15 | CC(C)(C)N1CCC(c2ccccc2)(c2ccccc2)CC1 [BUDIPINE] | 12.6 | > 30 | > 30 | > 30 | > 30 | > 30 | > 30 | > 30 | > 30 | > 30 | > 30
16 | CC(C)COC(=O)OCN1C(=O)CN(CCN2CC(=O)N(COC(=O)OCC(C)C)C(=O)C2)CC1=O [SOBUZOXANE] | > 30 | > 30 | 29.8 | > 30 | > 30 | > 30 | > 30 | > 30 | > 30 | > 30 | > 30
17 | CCCNC(C)C(=O)Nc1c(C)csc1C(=O)OC (configuration not stated) [ARTICAINE] | > 30 | > 30 | > 30 | > 30 | > 30 | > 30 | > 30 | > 30 | > 30 | > 30 | > 30
